Source: the supplement of paper PMC10307832

How the values were obtained:
Experiment in all cases: relative viability (nuclei count vs DMSO), 5 days (fraction); higher = more cells survive
[1] = compound: CC1=NN=C(O1)C2=NN=C(C=C2)N3CCC(CC3)OC4=C(C=CC(=C4)F)Cl + CC1(C)CCC(c2ccc(Cl)cc2)=C(CN2CCN(c3ccc(C(=O)NS(=O)(=O)c4ccc(N[C@H](CCN5CCOCC5)CSc5ccccc5)c(S(=O)(=O)C(F)(F)F)c4)cc3)CC2)C1 [Navitoclax] (partner 0.5 µM)
Summary of the method: (§1)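 Lung cancer cell lines were pin-tool dosed in 1536-well plates on the day after seeding, with either a lone drug or a fixed anchor-drug dose plus five library-drug doses (not always all listed) in √10 steps. Nuclei were counted on 4× images after 5 days. Relative viability is the ratio of treated-well to vehicle-well nuclei counts, with each value a median of duplicate plates.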

Tosedostat + Vorinostat = compound: CC(C)C[C@@H](C(=O)N[C@H](C(=O)OC1CCCC1)c1ccccc1)[C@H](O)C(=O)NO [Tosedostat] + O=C(CCCCCCC(=O)Nc1ccccc1)NO [Vorinostat] (partner 1 µM)
Summary of the method: as §1

Tosedostat + OSI-027 = compound: CC(C)C[C@@H](C(=O)N[C@H](C(=O)OC1CCCC1)c1ccccc1)[C@H](O)C(=O)NO [Tosedostat] + COc1cccc2cc(-c3nc([C@H]4CC[C@H](C(=O)O)CC4)n4ncnc(N)c34)[nH]c12 [OSI-027] (partner 0.5 µM)
Summary of the method: as §1

[2] = compound: CC1=NN=C(O1)C2=NN=C(C=C2)N3CCC(CC3)OC4=C(C=CC(=C4)F)Cl + C[C@]1(O)C[C@@H](c2nc(-c3ccc4ccc(-c5ccccc5)nc4c3)c3c(N)nccn32)C1 [Linsitinib] (partner 1 µM)
Summary of the method: as §1

Cell Line	relative viability ([1]; first compound 0.253 µM)	relative viability ([1]; first compound 0.8 µM)	relative viability ([1]; first compound 2.53 µM)	relative viability ([1]; first compound 8 µM)	relative viability (Tosedostat + Vorinostat; first compound 0.02 µM)	relative viability (Tosedostat + Vorinostat; first compound 0.06325 µM)	relative viability (Tosedostat + Vorinostat; first compound 0.2 µM)	relative viability (Tosedostat + Vorinostat; first compound 0.6325 µM)	relative viability (Tosedostat + Vorinostat; first compound 2 µM)	relative viability (Tosedostat + OSI-027; first compound 0.02 µM)	relative viability (Tosedostat + OSI-027; first compound 0.06325 µM)	relative viability (Tosedostat + OSI-027; first compound 0.2 µM)	relative viability (Tosedostat + OSI-027; first compound 0.6325 µM)	relative viability (Tosedostat + OSI-027; first compound 2 µM)	relative viability ([2]; first compound 0.253 µM)	relative viability ([2]; first compound 0.8 µM)	relative viability ([2]; first compound 2.53 µM)	relative viability ([2]; first compound 8 µM)
201T	0.542	0.627	0.53	0.529	1.01	0.997	0.99	0.962	0.981	0.761	0.818	0.755	0.949	0.718	0.569	0.596	0.634	0.565
A549	0.778	0.652	0.599	0.587	–	–	–	–	–	–	–	–	–	–	0.543	0.565	0.427	0.351
A-427	0.86	–	0.771	0.631	0.893	0.893	0.85	0.853	0.801	0.437	0.548	0.534	0.484	0.406	0.947	–	0.907	0.887
ABC-1	–	–	–	–	1.33	1.29	0.954	0.974	0.693	0.588	0.546	0.423	0.391	0.406	0.627	0.465	0.575	0.451
BEN	0.0638	0.0498	0.058	0.141	0.645	0.602	0.678	0.761	0.888	0.298	0.292	0.286	0.31	0.326	0.784	0.879	0.919	0.75
CAL-12T	1	1.09	0.834	1	1.05	0.678	0.656	0.572	0.685	0.9	0.769	0.76	0.572	0.457	0.953	0.78	0.754	0.869
COR-L23	0.815	0.729	0.789	0.629	0.57	0.454	0.38	0.343	0.399	0.965	0.746	0.69	0.65	0.64	0.669	0.726	0.678	0.579
COR-L 105	0.686	0.846	0.622	0.727	0.92	0.825	1.1	0.785	0.759	0.605	0.731	0.647	0.606	0.62	0.764	0.935	1.1	1.21
Calu-6	0.667	0.673	0.651	0.612	–	–	–	–	–	–	–	–	–	–	0.635	0.612	0.691	0.656
ChaGo-K-1	0.678	0.624	0.632	0.622	0.803	0.754	0.771	0.717	0.62	0.54	0.525	0.577	0.617	0.498	–	–	–	–
